Assay results: patent US20150051202A1, “TRIAZOLOPYRAZINE DERIVATIVES” (Merck Patent GmbH, priority 2012, published 2015)

Columns and labels:
GCN2 = GCN2 (Homo sapiens, UniProt Q9P2K8); experiment: GCN2 enzyme assay (TR-FRET Lanthascreen, GFP-eIF2alpha substrate); type: biochemical; conditions: for GCN2 (enzyme assay) % at 10 μM: 100% corresponds to zero effect, −50% corresponds to IC50
Excerpt: GCN2: Assay Principle & Conditions
This assay can quantificate the activity of the serin kinase GCN2 (general control non-derepressible-2).
This kinase is involved in the stress metabolism of cells. It is activated upon starvation (amino acid depletion). Its natural substrate is eIF2a (eukaryotic initiation factor 2 alpha subunit), a translation factor, which gets activated (phosphorylated) by GCN2 in case of an amino acid bottleneck in the cells. This in turn leads to a halt of the protein synthesis. Inhibition of GCN2 results in stopping this mechanism: The cell can not stop protein production upon “starvation” stress.
The assay is run in two steps: the enzymatic reaction and the detection step. In the first step GCN2 is incubated with 10 μM ATP and 80 nM of the GFP-labelled substrate eIF2alpha at room temperature.
The enzymatic reaction is stopped by addition of EDTA. The amount of phosphorylated eIF2alpha is determined by TR-FRET (Lanthascreen): A complex is formed consisting of antibody and GFP labelled phospho-eIF2a, which allows a FRET upon exitation at 340 nm.
Final Concentrations in the Enzymatic Reaction • Hepes, pH 7.0 50 mM • MgCl2 10 mM • MnCl2 5 mM • BSA 0.1% • DMSO 1% • ATP 10 uM • DTT 2 mM • GFP-eIF2a 80 nM (substrate) • GCN2 30 nM (enzyme)

SYK = molecular target: T1, SYK (Homo sapiens, UniProt P43405); experiment: SYK enzyme assay (Flash plate assay / Caliper mobility shift assay); type: biochemical; conditions: for SYK (enzyme assay) % at 3 μM: 100% corresponds to zero effect, −50% corresponds to IC50
T1 construct: purchased BPS Bioscience, CA, USA
Procedure: The kinase assay is performed either as 384-well Flashplate assay (for e.g. Topcount measurement) or as 384-well Image-Flashplate assay (for LEADseeker measurement).
2.5 nM SYK, 400 nM Biotin-Aha-Aha-[…]
and 10 μM ATP (spiked with 0.3 μCi 33P-ATP/well) are incubated in a total volume of 50 μl (60 mM Hepes, 10 mM MgCl2, 1.2 mM Dithiothreitol, 0.02% Brij35, 0.1% BSA, pH 7.5) with or without test compound for 1 hours at 30° C. The reaction is stopped with 25 μl 200 mM EDTA. After 30 Min at 30° C. the liquid is removed and each well washed thrice with 100 μl 0.9% sodium chloride solution. Non-specific reaction is determined in presence of 0.1 μM Staurosporine. Radioactivity is measured with Topcount (when using Flashplates) or with LEADseeker (when using Image-Flashplates) respectively. Results (e.g. IC50-values) are calculated with program tools provided by the IT-department (e.g. Symyx Assay Explorer, Genedata Screener).
Enzymatic Assays Using the Caliper LifeSciences Technology
The assays described here are performed on the Caliper Life Sciences LC3000 system This technology provides data on enzyme activity via measurement of the relative amounts of phosphorylated or unphosphorylated fluorescently labelled substrate peptide at the end of an enzymatic reaction.
These different states of peptide are resolved by applying a potential difference across the sample. The presence of the charged phosphate group on the product (as opposed to the substrate) causes a different peptide mobility between the two peptides. This is visualized by excitation of the fluorescent label on the substrate and product peptides and represented as peaks within the analysis software.
In order to measure inhibitor activity of kinase inhibitors on this technology, a TTP Mosquito liquid handling instrument is used to place 0.25 ul of the appropriate concentration of inhibitor in 100% DMSO (for a dose response curve calculation) into each well of a 384-well plate. To this reaction components are added to a final volume of 25 ul. The table below indicates the sequences and concentrations for the assays described in this report. Standard components are 1 mM DTT (Sigma, D0632), 1 mM MgCl2 (Sigma, M1028), 100 mM HEPES pH 7.5 (Calbiochem, 391338), 0.015% Brij-35 (Sigma, B4184).
The reaction is incubated for 90 min at 25 C, and then stopped by the addition of 70 ul of Stop buffer (100 mM HEPES pH 7.5, 0.015% Brij-35, 10 mM EDTA (Sigma, E7889)).
The plate is read on a Caliper LC 3000 in an Off-Chip mobility shift assay format, on a 12-sipper chip. Unphosphorylated substrate and phosphorylated product peptide resolve as separate peaks allowing direct measurement of percentage of conversion of substrate to product. The percent conversion can be plotted against concentration of inhibitor to produce a sigmoidal dose response curve, from which an IC50 can be calculated using GeneData Condoseo or a similar product.

GCN2, sequence (Q9P2K8 whole entry): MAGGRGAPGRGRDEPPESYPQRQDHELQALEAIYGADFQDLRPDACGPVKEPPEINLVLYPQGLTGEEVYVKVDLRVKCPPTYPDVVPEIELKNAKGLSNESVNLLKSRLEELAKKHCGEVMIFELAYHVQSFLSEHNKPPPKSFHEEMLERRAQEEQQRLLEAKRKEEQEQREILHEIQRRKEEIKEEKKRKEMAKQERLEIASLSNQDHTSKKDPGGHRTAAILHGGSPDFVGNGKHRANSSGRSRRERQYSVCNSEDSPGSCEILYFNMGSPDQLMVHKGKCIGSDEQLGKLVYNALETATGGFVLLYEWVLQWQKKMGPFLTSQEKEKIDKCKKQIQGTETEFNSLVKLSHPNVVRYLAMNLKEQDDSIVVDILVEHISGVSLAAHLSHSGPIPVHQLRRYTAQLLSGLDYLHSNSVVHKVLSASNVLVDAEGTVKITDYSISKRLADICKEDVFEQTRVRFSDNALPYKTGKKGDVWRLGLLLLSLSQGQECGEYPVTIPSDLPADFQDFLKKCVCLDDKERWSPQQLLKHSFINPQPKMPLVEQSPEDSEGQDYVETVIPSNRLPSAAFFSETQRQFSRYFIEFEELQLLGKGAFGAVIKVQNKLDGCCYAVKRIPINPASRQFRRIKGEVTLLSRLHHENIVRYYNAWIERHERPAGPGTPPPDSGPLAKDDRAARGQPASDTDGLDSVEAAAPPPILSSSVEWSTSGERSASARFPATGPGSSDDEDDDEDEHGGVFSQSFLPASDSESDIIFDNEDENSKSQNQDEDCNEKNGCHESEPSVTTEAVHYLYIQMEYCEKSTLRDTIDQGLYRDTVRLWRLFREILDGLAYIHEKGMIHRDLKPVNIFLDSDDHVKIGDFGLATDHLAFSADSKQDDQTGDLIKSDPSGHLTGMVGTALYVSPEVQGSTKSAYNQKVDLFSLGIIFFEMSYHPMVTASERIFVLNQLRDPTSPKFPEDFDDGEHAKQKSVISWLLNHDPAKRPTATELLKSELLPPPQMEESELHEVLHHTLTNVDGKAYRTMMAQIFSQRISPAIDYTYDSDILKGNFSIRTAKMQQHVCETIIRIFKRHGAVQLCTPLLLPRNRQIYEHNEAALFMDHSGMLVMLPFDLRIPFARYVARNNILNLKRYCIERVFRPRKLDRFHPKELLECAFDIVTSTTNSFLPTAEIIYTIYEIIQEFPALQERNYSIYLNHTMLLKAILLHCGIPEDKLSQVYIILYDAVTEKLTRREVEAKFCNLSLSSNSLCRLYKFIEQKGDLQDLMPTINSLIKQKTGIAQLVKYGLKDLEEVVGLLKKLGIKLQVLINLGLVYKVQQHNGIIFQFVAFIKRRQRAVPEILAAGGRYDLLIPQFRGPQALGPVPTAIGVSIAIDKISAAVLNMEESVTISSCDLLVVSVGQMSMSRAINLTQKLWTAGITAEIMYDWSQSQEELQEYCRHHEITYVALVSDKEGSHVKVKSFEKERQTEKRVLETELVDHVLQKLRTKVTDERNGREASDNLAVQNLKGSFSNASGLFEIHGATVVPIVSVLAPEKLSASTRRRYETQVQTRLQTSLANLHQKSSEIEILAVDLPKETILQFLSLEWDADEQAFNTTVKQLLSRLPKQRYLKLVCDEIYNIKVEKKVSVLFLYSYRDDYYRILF

SMILES | IC50 (GCN2) | IC50 (SYK) | SYK (enzyme assay) % at 3 μM (SYK) | GCN2 (enzyme assay) % at 10 μM (GCN2)
Cn1cc(-c2cncc3nc(Nc4ccc5c(c4)NC(=O)C5(C)C)nn23)cn1 [Compound A13, 3,3-dimethyl-6-[5-(1-methyl-1H-pyrazol-4-yl)-[1,2,4]triazolo[1,5-a]pyrazin-2-ylamino]-1,3-dihydro-indol-2-one] | < 1000 nM | < 1000 nM | – | –
CN(C)Cc1nc2cc(Nc3nc4cncc(-c5cnn(C)c5)n4n3)ccc2[nH]1 [Compound A14] | < 1000 nM | 1000 to 5000 nM | – | –
O=C1Cc2cc(Nc3nc4cncc(-c5ccc(N6CCOCC6)cc5)n4n3)ccc2N1 [Compound A15, 5-[5-(4-morpholin-4-yl-phenyl)-[1,2,4]triazolo[1,5-a]pyrazin-2-ylamino]-1,3-dihydro-indol-2-one] | < 1000 nM | 1000 to 5000 nM | – | –
c1cncc(Nc2nc3cncc(-c4ccc(N5CCOCC5)cc4)n3n2)c1 [Compound A16, [5-(4-morpholin-4-yl-phenyl)-[1,2,4]triazolo[1,5-a]pyrazin-2-yl]-pyridin-3-yl-amine] | < 1000 nM | – | 1.5@3% | –
Cc1cc(Nc2nc3cncc(-c4ccc(N5CCOCC5)cc4)n3n2)ccc1N1CCN(C)CC1 [Compound A17, [3-methyl-4-(4-methyl-piperazin-1-yl)-phenyl]-[5-(4-morpholin-4-yl-phenyl)-[1,2,4]triazolo[1,5-a]pyrazin-2-yl]-amine] | < 1000 nM | 1000 to 5000 nM | – | –
Clc1cn2nc(Nc3cccnc3)nc2cn1 [Compound A20] | 1000 to 5000 nM | – | 1@3% | –
COc1cccc(Nc2nc3cnc(Br)cn3n2)c1 [Compound A22] | < 1000 nM | – | −15@3% | –
c1cncc(Nc2nc3cnc(-c4cccnc4)cn3n2)c1 [Compound A25, pyridin-3-yl-(6-pyridin-3-yl-[1,2,4]triazolo[1,5-a]pyrazin-2-yl]-amine] | 1000 to 5000 nM | – | −8@3% | –
Fc1ccc(-c2cncc3nc(Nc4cccnc4)nn23)cc1 [Compound A27, [5-(4-fluoro-phenyl)-[1,2,4]triazolo[1,5-a]pyrazin-2-yl]-pyridin-3-yl-amine] | 1000 to 5000 nM | – | −6@3% | –
COc1cccc(Nc2nc3cncc(-c4ccccc4)n3n2)c1 [Compound A28] | < 1000 nM | – | −2@3% | –
COc1cccc(Nc2nc3cncc(-c4cnn(C)c4)n3n2)c1 [Compound A30] | < 1000 nM | – | −33@3% | –
c1cc(N2CCOCC2)ccc1Nc1nc2cncc(-c3cn[nH]c3)n2n1 [Compound A31, (4-morpholin-4-yl-phenyl)-[5-(1H-pyrazol-4-yl)-[1,2,4]triazolo[1,5-a]pyrazin-2-yl]-amine] | 1000 to 5000 nM | < 1000 nM | – | –
c1ccc2ncc(-c3cncc4nc(Nc5ccc(N6CCOCC6)cc5)nn34)cc2c1 [Compound A32, (4-morpholin-4-yl-phenyl)-(5-quinolin-3-yl-[1,2,4]triazolo[1,5-a]pyrazin-2-yl)-amine] | 1000 to 5000 nM | – | −35@3% | –
CC(C)(C#N)c1ccc(-c2cncc3nc(Nc4ccc(N5CCOCC5)cc4)nn23)cc1 [Compound A34, 2-Methyl-2-{4-[2-(4-morpholin-4-yl-phenylamino)-[1,2,4]triazolo[1,5-a]pyrazin-5-yl]-phenyl}-propionitrile] | 1000 to 5000 nM | 1000 to 5000 nM | – | –
Cn1cc(-c2cncc3nc(Nc4ccc(N5CCOCC5)cc4)nn23)cn1 [Compound A35, [5-(1-methyl-1H-pyrazol-4-yl)-[1,2,4]triazolo[1,5-a]pyrazin-2-yl]-(4-morpholin-4-yl-phenyl)-amine] | < 1000 nM | < 1000 nM | – | –
c1ccc(-c2ccccc2-c2cncc3nc(Nc4ccc(N5CCOCC5)cc4)nn23)cc1 [Compound A36, (5-biphenyl-2-yl-[1,2,4]triazolo[1,5-a]pyrazin-2-yl)-(4-morpholin-4-yl-phenyl)-amine] | – | 1000 to 5000 nM | – | −4@10%

Other lines, results leading:

IC50 (GCN2) | IC50 (SYK) | SYK (enzyme assay) % at 3 μM (SYK) | GCN2 (enzyme assay) % at 10 μM (GCN2) | SMILES
– | 1000 to 5000 nM | – | 3@10% | COc1cc(Nc2nc3cncc(-c4ccccc4-c4ccccc4)n3n2)cc(OC)c1 [Compound A37]
5000 to 10000 nM | 1000 to 5000 nM | – | – | Cc1ncc2nc(Nc3ccc(N4CCOCC4)cc3)nn2c1-c1cnn(C)c1 [Compound A44, [6-methyl-5-(1-methyl-1H-pyrazol-4-yl)-[1,2,4]triazolo[1,5-a]pyrazin-2-yl]-(4-morpholin-4-yl-phenyl)-amine]
– | < 1000 nM | – | 2@10% | Cn1cc(-c2c(-c3ccccc3)ncc3nc(Nc4ccc(N5CCOCC5)cc4)nn23)cn1 [Compound A45, [5-(1-methyl-1H-pyrazol-4-yl)-6-phenyl-[1,2,4]triazolo[1,5-a]pyrazin-2-yl]-(4-morpholin-4-yl-phenyl)-amine]
– | 1000 to 5000 nM | – | −8@10% | Cn1cc(-c2ncc3nc(Nc4ccc(N5CCOCC5)cc4)nn3c2-c2cnn(C)c2)cn1 [Compound A46, [5,6-Bis-(1-methyl-1H-pyrazol-4-yl)-[1,2,4]triazolo[1,5-a]pyrazin-2-yl]-(4-morpholin-4-yl-phenyl)-amine]
< 1000 nM | < 1000 nM | – | – | Cn1cc(-c2cncc3nc(Nc4ccc(C5(C#N)CC5)cc4)nn23)cn1 [Compound A47, 1-{4-[5-(1-methyl-1H-pyrazol-4-yl)-[1,2,4]triazolo[1,5-a]pyrazin-2-ylamino]-phenyl}-cyclopropanecarbonitrile]
< 1000 nM | 5000 to 10000 nM | – | – | CN1CCN(c2ccc(Nc3nc4cncc(-c5cnn(CCN6CCOCC6)c5)n4n3)cc2)CC1 [Compound A48, [4-(4-methyl-piperazin-1-yl)-phenyl]-{5-[1-(2-morpholin-4-yl-ethyl)-1H-pyrazol-4-yl]-[1,2,4]triazolo[1,5-a]pyrazin-2-yl}-amine]
1000 to 5000 nM | – | −19@3% | – | O=C1Cc2cc(Nc3nc4cncc(-c5cnn(CCN6CCOCC6)c5)n4n3)ccc2N1 [Compound A49, 5-{5-[1-(2-morpholin-4-yl-ethyl)-1H-pyrazol-4-yl]-[1,2,4]triazolo[1,5-a]pyrazin-2-ylamino}-1,3-dihydro-indol-2-one]
< 1000 nM | – | −32@3% | – | Cc1cc(Nc2nc3cncc(-c4cnn(CCN5CCOCC5)c4)n3n2)ccc1N1CCN(C)CC1 [Compound A50, [3-methyl-4-(4-methyl-piperazin-1-yl)-phenyl]-{5-[1-(2-morpholin-4-yl-ethyl)-1H-pyrazol-4-yl]-[1,2,4]triazolo[1,5-a]pyrazin-2-yl}-amine]
< 1000 nM | < 1000 nM | – | – | Cc1cc(Nc2nc3cncc(-c4cnn(CCC(C)C)c4)n3n2)ccc1N1CCN(C)CC1 [Compound A51, {5-[1-(3-methyl-butyl)-1H-pyrazol-4-yl]-[1,2,4]triazolo[1,5-a]pyrazin-2-yl}-[3-methyl-4-(4-methyl-piperazin-1-yl)-phenyl]-amine]
1000 to 5000 nM | – | −32@3% | – | CN1C(=O)Cc2cc(Nc3nc4cncc(-c5cnn(CCN6CCOCC6)c5)n4n3)ccc21 [Compound A52, 1-methyl-5-{5-[1-(2-morpholin-4-yl-ethyl)-1H-pyrazol-4-yl]-[1,2,4]triazolo[1,5-a]pyrazin-2-ylamino}-1,3-dihydro-indol-2-one]
